In patent US11485751B2, “Apramycin derivatives” (WAYNE STATE UNIVERSITY, priority 2017, dated 2022):
In brackets after ≈: the same amount, converted by molar mass.

Columns and labels:
[1] = system: AG212, Escherichia coli ATCC25922; assay: MIC reference strain AG212; format: cell-based; details: Escherichia coli; reference strain ATCC25922; read-out: MIC AG212 E. coli
Method in brief: (§1)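 The method determines minimal inhibitory concentrations using the standard CLSI microdilution procedure in liquid medium.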

[2] = system: Engineered E. coli pH424 armA; assay: Activity against G1405-methylated 16S-rRNA, E. coli pH424 armA; format: cell-based
Method in brief: (§2)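 Susceptibility was measured as minimal inhibitory concentration using a standardized broth microdilution protocol (CLSI document M07-A10).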

AG032 P. aer. APH(3′)-II = assay: Antibacterial activity, clinical isolate AG032; format: cell-based; set-up: unit not given here
Method in brief: (§3)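 Susceptibility was tested per CLSI aerobic dilution protocol using microbroth format, with the MIC taken as the end point.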

[3] = system: human cytosolic ribosomes; assay: in-vitro translation assay, human cytosolic ribosomes; format: biochemical
Method in brief: (§4)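 Translation inhibition is measured in vitro with isolated ribosomes, and IC50 derived. The human cytosolic values actually use rabbit reticulocyte ribosomes, and the mitochondrial values use human chimeric ribosomes.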

[4] = system: Engineered E. coli pH425 rmtB; assay: Activity against G1405-methylated 16S-rRNA, E. coli pH425 rmtB; format: cell-based
Method in brief: as §2

[5] = system: AG042 MRSA AAC(6′)-I ANT(4′)-I APH(2′); assay: Antibacterial activity, clinical isolate AG042; format: cell-based; set-up: unit not given here
Method in brief: as §3

[6] = system: A baum. AG227 APH(3′)-I armA; assay: Activity against G1405-methylated 16S-rRNA, clinical isolate AG227; format: cell-based
Method in brief: as §2

[7] = system: E. coli AG153 AAC(3)-II APH(3′)-II rmtB; assay: Activity against G1405-methylated 16S-rRNA, clinical isolate AG153; format: cell-based
Method in brief: as §2

AG163 E. coli APH(3′)-I = assay: Antibacterial activity, clinical isolate AG163; format: cell-based
Method in brief: as §3

[8] = system: clinical isolates carrying APH(3′)-I; assay: MIC broth microdilution, APH(3′)-I; format: cell-based; details: IMM Univ. Zurich
[9] = system: AG033 P. aer. APH(3′)-II AAC(6′)-I; assay: Antibacterial activity, clinical isolate AG033; format: cell-based; set-up: unit not given here
Method in brief: as §3

AG031 P. aer. APH(3′)-II = assay: Antibacterial activity, clinical isolate AG031; format: cell-based; set-up: unit not given here
Method in brief: as §3

bacterial ribosomes = assay: in-vitro translation assay, bacterial ribosomes; format: biochemical
Method in brief: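 Inhibitory potency was determined as IC50 in in-vitro translation systems based on bacterial ribosomes, human chimeric (mitochondrial-type) ribosomes or rabbit reticulocyte (cytosolic) ribosomes.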

[10] = system: Engineered E. coli pH430 WT; assay: Activity, engineered E. coli pH430 WT; format: cell-based; details: wild type
Method in brief: as §2

[11] = system: clinical isolates carrying AAC(3)-IV; assay: MIC broth microdilution, AAC(3)-IV; format: cell-based; details: clinical isolates, IMM Univ. Zurich; AAC(3)-IV; read-out: MIC AAC(3)-IV
Method in brief: (§5)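 Clinical isolates supplied by the Zurich Institute of Medical Microbiology were tested for MIC (μg/ml) using CLSI M07-A10 broth microdilution.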

[12] = system: AG220, Pseudomonas aeruginosa ATCC27853; assay: MIC reference strain AG220; format: cell-based; details: Pseudomonas aeruginosa, ATCC27853, reference strain ATCC27853; read-out: MIC AG220 P. aeruginosa
Method in brief: as §1

[13] = system: AG215, Klebsiella pneumonia; assay: MIC reference strain AG215; format: cell-based; details: Klebsiella pneumoniae, reference strain; read-out: MIC AG215 K. pneumonia
Method in brief: as §1

[14] = system: AG039 MRSA AAC(6′)-I ANT(4′)-I; assay: Antibacterial activity, clinical isolate AG039; format: cell-based
Method in brief: as §3

[15] = system: AG225, Acinetobacter baumannii pittii; assay: MIC reference strain AG225; format: cell-based; details: Acinetobacter baumannii, reference strain; read-out: MIC AG225 A. baumannii
Method in brief: as §1

AG038 MRSA = assay: Antibacterial activity, clinical isolate AG038; format: cell-based; set-up: unit not given here
Method in brief: as §3

[16] = system: clinical isolates carrying APH(3′)-VI; assay: MIC broth microdilution, APH(3′)-VI; format: cell-based; details: IMM Univ. Zurich
[17] = system: Engineered E. coli pH427 rmtF; assay: Activity against G1405-methylated 16S-rRNA, E. coli pH427 rmtF; format: cell-based
Method in brief: as §2

[18] = system: clinical isolates carrying APH(3′)-II; assay: MIC broth microdilution, APH(3′)-II; format: cell-based; details: clinical isolates, IMM Univ. Zurich; APH(3′)-II; read-out: MIC APH(3′)-II
[19] = system: Engineered E. coli pH426 rmtC; assay: Activity against G1405-methylated 16S-rRNA, E. coli pH426 rmtC; format: cell-based
Method in brief: as §2

[20] = system: K. pneum. AG269 AAC(3)-II AAC(6′)-I rmtB; assay: Activity against G1405-methylated 16S-rRNA, clinical isolate AG269; format: cell-based
Method in brief: as §2

[21] = system: clinical isolates carrying APH(3′)-III; assay: MIC broth microdilution, APH(3′)-III; format: cell-based; details: IMM Univ. Zurich
[22] = system: Enterob. AG302 AAC(3)-II AAC(6′)-I rmtC; assay: Activity against G1405-methylated 16S-rRNA, clinical isolate AG302; format: cell-based
Method in brief: as §2

AG173 E. coli AAC(3)-IV = assay: Antibacterial activity, clinical isolate AG173; format: cell-based
Method in brief: as §3

AG001 E. coli WT = assay: Antibacterial activity, clinical isolate AG001; format: cell-based; set-up: unit not given here
Method in brief: as §3

[23] = system: human mitochondrial ribosomes; assay: in-vitro translation assay, human mitochondrial (human chimeric) ribosomes; format: biochemical
Method in brief: as §4

[24] = system: AG290, Enterobacter cloacae; assay: MIC reference strain AG290; format: cell-based; details: Enterobacter cloacae; reference strain; read-out: MIC AG290 E. cloacae
Method in brief: as §1

AG003 E. coli AAC(3)-II = assay: Antibacterial activity, clinical isolate AG003; format: cell-based
Method in brief: as §3

AG055 E. coli WT = assay: Antibacterial activity, clinical isolate AG055; format: cell-based; set-up: unit not given here
Method in brief: as §3

[25] = system: Enterobacteriaceae, Pseudomonas, Acinetobacter, and Mycobacteria; assay: Antibacterial potency, Tables 4+5 overall; format: cell-based; details: against Enterobacteriaceae, Mycobacteria (Tables 4+5)
Source text: Minimal inhibitory concentrations (MIC) have been determined by broth microdilution assays (CLSI. Methods for Dilution Antimicrobial Susceptibility Tests for Bacteria That Grow Aerobically; Approved Standard—Tenth Edition. CLSI document M07-A10. Wayne, Pa.: Clinical and Laboratory Standards Institute; 2015.).

[26] = system: Engineered E. coli AG103 armA; assay: Activity against G1405-methylated 16S-rRNA, E. coli AG103 armA; format: cell-based
Method in brief: as §2

ATCC19977 M. abcessus = assay: MIC reference strain ATCC19977; format: cell-based; details: reference strain; read-out: MIC ATCC19977 M. abcessus
Method in brief: as §3

N. gonorrhoeae = assay: Disk diffusion N. gonorrhoeae; format: cell-based
WT clinical isolates = assay: MIC broth microdilution, WT; format: cell-based; details: read-out: MIC WT, clinical isolates, IMM Univ. Zurich; wild type
Method in brief: as §5

isolates carrying apmA = assay: MIC broth microdilution, apmA; format: cell-based; details: apmA resistance gene
Method in brief: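 Clinical isolates carrying apmA, from the University of Zurich Institute of Medical Microbiology, were tested by broth microdilution following CLSI M07-A10; values are MICs in μg/ml.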

CNC1C(OC2OC(CO)C(N)C(O)C2O)OC2CC(N)C(OC3C(N)CC(N)C(O)C3OC3OC(CN)C(OCCN)C3O)OC2C1O [DC185, 5-O-β-[5-Amino-3-O-(2-aminoethyl)-5-deoxy-D-ribofuranosyl] apramycin]
MIC [1]: 2 µg/mL
Activity E. coli pH424 armA [2]: 2
Antibacterial activity AG032 P. aer. APH(3′)-II (AG032 P. aer. APH(3′)-II): 2
IC50 [3]: 26 µM
Activity E. coli pH425 rmtB [4]: 2
Antibacterial activity AG042 MRSA AAC(6′)-I ANT(4′)-I APH(2′) [5]: 1
Activity A baum. AG227 APH(3′)-I armA [6]: 2
Activity E. coli AG153 AAC(3)-II APH(3′)-II rmtB [7]: 4
Antibacterial activity AG163 E. coli APH(3′)-I (AG163 E. coli APH(3′)-I): 2
MIC [8]: 1 µg/mL (≈ 1.4 µM)
Antibacterial activity AG033 P. aer. APH(3′)-II AAC(6′)-I [9]: 2
Antibacterial activity AG031 P. aer. APH(3′)-II (AG031 P. aer. APH(3′)-II): 2
IC50 (bacterial ribosomes): 0.03 µM
Activity E. coli pH430 WT [10]: 1
MIC [11]: > 32 µg/mL
MIC [12]: 1 to 2 µg/mL
MIC [13]: 0.5 to 1 µg/mL
Antibacterial activity AG039 MRSA AAC(6′)-I ANT(4′)-I [14]: 1
MIC [15]: 2 µg/mL
Antibacterial activity AG038 MRSA (AG038 MRSA): 1
MIC [16]: 2 µg/mL (≈ 2.8 µM)
Activity E. coli pH427 rmtF [17]: 2
MIC [18]: 1 µg/mL (≈ 1.4 µM)
Activity E. coli pH426 rmtC [19]: 2
Activity K. pneum. AG269 AAC(3)-II AAC(6′)-I rmtB [20]: 1
MIC [21]: 0.25 µg/mL (≈ 0.35 µM)
Activity Enterob. AG302 AAC(3)-II AAC(6′)-I rmtC [22]: 1
Antibacterial activity AG173 E. coli AAC(3)-IV (AG173 E. coli AAC(3)-IV): 4
Antibacterial activity AG001 E. coli WT (AG001 E. coli WT): 2
IC50 [23]: 34 µM
MIC [24]: 1 µg/mL
Antibacterial activity AG003 E. coli AAC(3)-II (AG003 E. coli AAC(3)-II): 1-2
Antibacterial activity AG055 E. coli WT (AG055 E. coli WT): 2
antibacterial potency [25]: increased antibacterial potency
Activity E. coli AG103 armA [26]: 0.5-1

CNC1C(O[C@H]2OC(CO)[C@@H](N)C(O)C2O)O[C@H]2CC(N)[C@@H](O[C@@H]3C(N)C[C@@H](N)C(O)C3O)OC2C1O (stereo partly drawn) [apramycin]
MIC [1]: 4 µg/mL
Activity E. coli pH424 armA [2]: 2-4
Antibacterial activity AG032 P. aer. APH(3′)-II (AG032 P. aer. APH(3′)-II): 8
IC50 [3]: 71 µM
Activity E. coli pH425 rmtB [4]: 4
Antibacterial activity AG042 MRSA AAC(6′)-I ANT(4′)-I APH(2′) [5]: 8
Activity A baum. AG227 APH(3′)-I armA [6]: 2
Activity E. coli AG153 AAC(3)-II APH(3′)-II rmtB [7]: 8
Antibacterial activity AG163 E. coli APH(3′)-I (AG163 E. coli APH(3′)-I): 4
MIC (ATCC19977 M. abcessus): 2 µg/mL (≈ 3.71 µM)
MIC [8]: 1 to 2 µg/mL (≈ 1.85 to 3.71 µM)
Antibacterial activity AG033 P. aer. APH(3′)-II AAC(6′)-I [9]: 16-32
Antibacterial activity AG031 P. aer. APH(3′)-II (AG031 P. aer. APH(3′)-II): 8-16
IC50 (bacterial ribosomes): 0.08 µM
Activity E. coli pH430 WT [10]: 2-4
MIC [11]: > 128 µg/mL
MIC [12]: 4 µg/mL
MIC [13]: 2 µg/mL
Antibacterial activity AG039 MRSA AAC(6′)-I ANT(4′)-I [14]: 8
MIC [15]: 4 µg/mL
Antibacterial activity AG038 MRSA (AG038 MRSA): 4-8
MIC [16]: 4 µg/mL (≈ 7.41 µM)
Activity E. coli pH427 rmtF [17]: 4
Disk diffusion 25 nmol N. gonorrhoeae (N. gonorrhoeae): <8 mm
MIC (WT clinical isolates): 2 to 4 µg/mL (≈ 3.71 to 7.41 µM)
Activity E. coli pH426 rmtC [19]: 4
Activity K. pneum. AG269 AAC(3)-II AAC(6′)-I rmtB [20]: 2
MIC [21]: 1 µg/mL (≈ 1.85 µM)
Activity Enterob. AG302 AAC(3)-II AAC(6′)-I rmtC [22]: 4
Antibacterial activity AG173 E. coli AAC(3)-IV (AG173 E. coli AAC(3)-IV): ≥128
Antibacterial activity AG001 E. coli WT (AG001 E. coli WT): 8-16
IC50 [23]: 68 µM
MIC [24]: 4 µg/mL
Antibacterial activity AG003 E. coli AAC(3)-II (AG003 E. coli AAC(3)-II): 8
Antibacterial activity AG055 E. coli WT (AG055 E. coli WT): 8
Activity E. coli AG103 armA [26]: 1-2
MIC (isolates carrying apmA): 64 µg/mL (≈ 119 µM)
